Consider one molecule from paper PMC3691274, “Unraveling the Activation Mechanism of the Potato Tuber ADP-Glucose Pyrophosphorylase” (PLoS ONE, 2013).

Assay [1] addresses T1, potato tuber ADP-Glc PPase (StuS/StuL) (Solanum tuberosum, UniProt P23509+Q00081).
T1 sequence (P23509 71-521 limits assumed): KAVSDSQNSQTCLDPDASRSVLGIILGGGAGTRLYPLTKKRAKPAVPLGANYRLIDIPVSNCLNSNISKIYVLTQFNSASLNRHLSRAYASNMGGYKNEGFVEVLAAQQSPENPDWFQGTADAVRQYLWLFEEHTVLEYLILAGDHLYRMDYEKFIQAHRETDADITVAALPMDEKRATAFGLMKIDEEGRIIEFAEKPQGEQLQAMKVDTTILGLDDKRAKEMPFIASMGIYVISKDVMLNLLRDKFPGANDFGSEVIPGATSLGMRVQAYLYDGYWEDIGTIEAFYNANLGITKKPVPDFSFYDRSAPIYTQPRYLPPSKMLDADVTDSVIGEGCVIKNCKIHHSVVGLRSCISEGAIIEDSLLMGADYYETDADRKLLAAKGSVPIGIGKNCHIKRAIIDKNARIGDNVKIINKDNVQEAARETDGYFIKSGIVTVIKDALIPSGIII
T1 sequence (Q00081 7-470): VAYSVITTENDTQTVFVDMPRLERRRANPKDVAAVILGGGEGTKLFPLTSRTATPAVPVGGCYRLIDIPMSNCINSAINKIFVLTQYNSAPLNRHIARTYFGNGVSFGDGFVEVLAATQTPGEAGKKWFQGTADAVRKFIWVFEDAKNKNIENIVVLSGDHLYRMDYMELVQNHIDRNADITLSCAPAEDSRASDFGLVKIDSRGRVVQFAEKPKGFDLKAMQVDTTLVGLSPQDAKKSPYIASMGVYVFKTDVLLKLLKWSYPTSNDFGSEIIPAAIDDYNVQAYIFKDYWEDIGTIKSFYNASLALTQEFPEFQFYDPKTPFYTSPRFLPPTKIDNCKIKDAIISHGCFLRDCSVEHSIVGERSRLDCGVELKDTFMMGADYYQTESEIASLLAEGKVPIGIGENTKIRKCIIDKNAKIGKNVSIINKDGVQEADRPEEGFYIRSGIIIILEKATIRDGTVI
The note with it: read-out: A 0.5; allosteric activator; 1.5 mM ATP, 0.5 mM [14C]Glc-1P, 7 mM MgCl2, 50 mM HEPPS pH 8.0, 37°C.

Assay [2] has as its target T2, Anabaena ADP-Glc PPase (Ana WT) (Nostoc sp. PCC 7120 = FACHB-418, UniProt P30521).
T2 construct: gene glgC; recombinant from plasmid pAnaE3a in E. coli AC70R1-504, purified, homotetramer, no tag mentioned
Nature of the assay: colorimetric Pi release assay (PPi hydrolysed by pyrophosphatase), Hill fit. Type of assay: biochemical. Conditions: read-out: A 0.5. From the text:
(§1) colorimetric Pi release assay (PPi hydrolysed by pyrophosphatase), Hill fit on Anabaena ADP-Glc PPase (Ana WT)

For assay [3], the target named is T3, Anabaena ADP-Glc PPase (Nostoc sp. PCC 7120 = FACHB-418, UniProt P30521, W96A).
T3 construct: gene glgC; recombinant from plasmid pAnaE3a in E. coli AC70R1-504, purified, homotetramer, no tag mentioned
T3 sequence (P30521 whole entry W96A): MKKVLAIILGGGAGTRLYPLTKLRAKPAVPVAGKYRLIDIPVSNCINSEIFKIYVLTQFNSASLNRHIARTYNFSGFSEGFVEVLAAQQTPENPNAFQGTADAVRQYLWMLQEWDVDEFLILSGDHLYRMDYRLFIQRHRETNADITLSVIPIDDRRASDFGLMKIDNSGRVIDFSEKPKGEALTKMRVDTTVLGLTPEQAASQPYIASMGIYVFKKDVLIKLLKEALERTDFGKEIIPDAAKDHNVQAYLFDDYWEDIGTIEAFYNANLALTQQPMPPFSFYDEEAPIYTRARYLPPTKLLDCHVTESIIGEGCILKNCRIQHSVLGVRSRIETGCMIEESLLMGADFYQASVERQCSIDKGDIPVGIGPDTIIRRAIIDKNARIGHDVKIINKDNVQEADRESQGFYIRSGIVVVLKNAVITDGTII
The assay is described as above. Format: biochemical. The note with it: read-out: A 0.5.
Description: as §1

The target in assay [4] is T4, Anabaena ADP-Glc PPase (Nostoc sp. PCC 7120 = FACHB-418, UniProt P30521, Q58A).
T4 construct: gene glgC; recombinant from plasmid pAnaE3a in E. coli AC70R1-504, purified, homotetramer, no tag mentioned
T4 sequence (P30521 whole entry Q58A): as the sequence (P30521 whole entry W96A) above, with Q58A, A96W counted along it
The description is as above. Conditions: read-out: A 0.5. Type of assay: biochemical.
Description: as §1

T2 sequence (P30521 whole entry): as the sequence (P30521 whole entry W96A) above, with A96W counted along it

In the case of `O=C(O)[C@H](O)COP(=O)(O)O` [3-PGA, 3-phosphoglycerate], the EC50 came to 54 ± 4 µM in assay [1], 76 ± 4 µM in assay [2], 83 ± 8 µM at Anabaena ADP-Glc PPase [3] and 95 ± 8 µM on Anabaena ADP-Glc PPase [4].
